Experimental findings from ChEMBL document CHEMBL1153182, “Novel enoyl-ACP reductase (FabI) potential inhibitors of Escherichia coli from Chinese medicine monomers” (Bioorg Med Chem Lett, 2010) are described below.

In brackets after ≈: the same amount, converted by molar mass. Activity calls are given as the source filed them. The rule behind the calls is not given here.

In assay [1] the target is T1, Enoyl-[acyl-carrier-protein] reductase [NADH] FabI (Escherichia coli K-12) (UniProt P0AEK4).
T1 sequence (whole entry): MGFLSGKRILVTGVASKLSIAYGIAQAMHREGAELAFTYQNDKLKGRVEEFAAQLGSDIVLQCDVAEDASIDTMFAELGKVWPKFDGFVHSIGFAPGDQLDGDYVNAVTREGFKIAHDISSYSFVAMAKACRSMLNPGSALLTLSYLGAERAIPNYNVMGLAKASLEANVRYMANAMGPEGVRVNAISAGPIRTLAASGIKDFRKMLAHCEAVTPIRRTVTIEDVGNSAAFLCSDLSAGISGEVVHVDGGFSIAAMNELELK
Nature of the assay: Uncompetitive inhibition of Escherichia coli MG1655 enoyl-ACP reductase overexpressed in Escherichia coli M15 assessed as oxidation of NADH to NAD+ after 5 mins by Lineweaver-Burke plot.

The target of assay [2] is T2, Enoyl-[acyl-carrier-protein] reductase [NADH] FabI (Escherichia coli K-12, UniProt P0AEK4).
T2 sequence (P0AEK4 whole entry): T1 sequence (whole entry)
Briefly: Inhibition of Escherichia coli MG1655 enoyl-ACP reductase overexpressed in Escherichia coli M15 assessed as oxidation of NADH to NAD+ after 5 mins.

The test system of assay [3] is Escherichia coli. Nature of the assay: Antibacterial activity against Escherichia coli M15. The assay is classed as functional.
Assay [4] has as its system Escherichia coli. Nature of the assay: Antibacterial activity against Escherichia coli MG1655. The assay is classed as functional.
The subject of assay [5] is Escherichia coli. Briefly: Antibacterial activity against fabI-overexpressing Escherichia coli M15. The assay is classed as functional.
The subject of assay [6] is Escherichia coli. Nature of the assay: Antibacterial activity against Escherichia coli M15 containing pQE30 expression vector. The assay is classed as functional.
Assay [7] relates to Escherichia coli. Briefly: Ratio of MIC90 for fabI-overexpressing Escherichia coli M15 to MIC90 for Escherichia coli M15 containing pQE30 expression vector. The assay is classed as functional.
Assay [8] concerns Escherichia coli. Briefly: Ratio of MIC90 for fabI-overexpressing Escherichia coli M15 to MIC90 for Escherichia coli M15. The assay is classed as functional.
Assay [9] concerns the target T1, Enoyl-[acyl-carrier-protein] reductase [NADH] FabI (Escherichia coli K-12). Nature of the assay: Inhibition of Escherichia coli MG1655 enoyl-ACP reductase overexpressed in Escherichia coli M15 assessed as oxidation of NADH to NAD+ at 5 uM after 5 mins.

Turning to `O=c1cc(-c2ccc(O)c(O)c2)oc2cc(O)cc(O)c12` [LUTEOLIN], the outcome in [1] was Active. In addition, in [2], the Ki is 7.05 µM.
With `O=C(N[C@H](CO)[C@H](O)c1ccc([N+](=O)[O-])cc1)C(Cl)Cl` [CHLORAMPHENICOL], the MIC90 with Escherichia coli [3], in the assay with Escherichia coli [4], in the assay on Escherichia coli [5] and against Escherichia coli [6] was 8 µg/mL (≈ 24.8 µM) each time.
In the case of `COc1cc(/C=C/C(=O)CC(=O)/C=C/c2ccc(O)c(OC)c2)ccc1O` [CURCUMIN], in assay [1], the outcome was Active. Moreover, the MIC90 against Escherichia coli [3] is 73.7 µg/mL (≈ 200 µM); with Escherichia coli [4], 73.7 µg/mL (≈ 200 µM); in the assay on Escherichia coli [5], over 500 µg/mL; with Escherichia coli [6] it was 73.7 µg/mL (≈ 200 µM). Besides, the Ratio in the assay on Escherichia coli [7] and in the assay on Escherichia coli [8] was 7 throughout. Besides, the Ki in assay [2] worked out at 15 µM.
For the compound `OC[C@H]1O[C@@H](Oc2cc(O)cc(/C=C/c3ccc(O)cc3)c2)[C@H](O)[C@@H](O)[C@@H]1O`, the result in [9] was Active.
Take `Oc1cc(Cl)ccc1Oc1ccc(Cl)cc1Cl` [TRICLOSAN]: the MIC90 with Escherichia coli [3] was 2.9 µg/mL (≈ 10 µM); against Escherichia coli [4], 2.9 µg/mL (≈ 10 µM); with Escherichia coli [5], over 500 µg/mL; with Escherichia coli [6], 2.9 µg/mL (≈ 10 µM).
Consider `CN[C@@H]1[C@H](O)[C@H](NC)[C@H]2O[C@@]3(O)C(=O)C[C@@H](C)O[C@H]3O[C@@H]2[C@H]1O` [SPECTINOMYCIN], for which the MIC90 with Escherichia coli [3], against Escherichia coli [4], against Escherichia coli [5] and against Escherichia coli [6] was 20 µg/mL (≈ 60.2 µM) in each case.
In the case of GENTAMICIN, the MIC90 against Escherichia coli [3], against Escherichia coli [4], with Escherichia coli [5] and against Escherichia coli [6] was 8 µg/mL each time.
In the case of `CO[C@H]1/C=C/O[C@@]2(C)Oc3c(C)c(O)c4c(O)c(c(/C=N/N5CCN(C)CC5)c(O)c4c3C2=O)NC(=O)/C(C)=C\C=C\[C@H](C)[C@H](O)[C@@H](C)[C@@H](O)[C@@H](C)[C@H](OC(C)=O)[C@@H]1C` [RIFAMPIN], the MIC90 in the assay on Escherichia coli [3], in the assay on Escherichia coli [4], in the assay on Escherichia coli [5] and in the assay with Escherichia coli [6] was 128 µg/mL (≈ 156 µM) each time.
Consider `CC[C@H]1OC(=O)[C@H](C)[C@@H](O[C@H]2C[C@@](C)(OC)[C@@H](O)[C@H](C)O2)[C@H](C)[C@@H](O[C@@H]2O[C@H](C)C[C@H](N(C)C)[C@H]2O)[C@](C)(O)C[C@@H](C)C(=O)[C@H](C)[C@@H](O)[C@]1(C)O` [ERYTHROMYCIN], for which the MIC90 in the assay on Escherichia coli [3], with Escherichia coli [4], against Escherichia coli [5] and in the assay on Escherichia coli [6] was 16 µg/mL (≈ 21.8 µM) throughout.
Consider `CC(C)=CCOc1c2occc2cc2ccc(=O)oc12`, for which, in [9], the result was Active.
Turning to `O=c1c(-c2ccc(O)cc2)coc2cc(O)cc(O)c12` [GENISTEIN], the outcome in assay [9] was Active. Further, the MIC90 in the assay on Escherichia coli [3] is 378 µg/mL (≈ 1400 µM); against Escherichia coli [4], 378 µg/mL (≈ 1400 µM); against Escherichia coli [5], over 500 µg/mL; against Escherichia coli [6], 378 µg/mL (≈ 1400 µM).

Usually Ki stands for the equilibrium dissociation constant of an inhibitor or competing ligand from its target. As usually defined, the MIC90 is the lowest concentration that inhibits either 90% of growth or 90% of the strains tested, depending on the study.
